Data as given in US8242275B2, “Bicyclic pyrazole compounds as antibacterial agents” (Janssen Pharmaceutica NV, priority 2005, dated 2012).
Values after ≈ are worked out from the molar mass of the structure shown. Like-named read-outs stand apart in the source and are kept apart here.

Key:
CipR MRSA OC3946 = assay: Resistant strains assay (broth microdilution MIC); type: cell-based; conditions: Staphylococcus aureus; CipR MRSA OC3946; read-out: MIC, Column E
Description: (§1) Compounds of the present invention were tested for activity against susceptible and resistant bacterial strains in vitro, and activity was compared to known anti-bacterial agents. Testing protocols followed NCCLS methodology for broth microdilution assays. MIC values in μg/mL are presented in Table 3 for the following strains: Column A: MSSA ATCC13709 (Smith); Column B: MSSA ATCC 29213; Column C: MRSA OC3726 (COL); Column D: MRSA OC2878.
MIC values in μg/mL are presented in Table 4 for the following strains: Column E: CipR MRSA OC3946; Column F: CipR MRSA OC4159; Column G: CipR MRSA OC4222; Column H: CipR MRSA OC5273.

MSSA ATCC13709 (Smith) = assay: Resistant strains assay (broth microdilution MIC); type: cell-based; conditions: Staphylococcus aureus
Description: as §1

MSSA ATCC 29213 = assay: Resistant strains assay (broth microdilution MIC); type: cell-based; conditions: Staphylococcus aureus, read-out: MIC, Column B
Description: as §1

E. coli topoisomerase IV = target: T1, E. coli topoisomerase IV (Escherichia coli, UniProt P0AFI2+P20083); assay: Topoisomerase IV inhibition assay (relaxation); type: biochemical; conditions: E. coli topoisomerase IV relaxation, visual inspection of gels; read-out: Topoisomerase IV IC50 (converted)
T1 construct: purchased John Innes Enterprises Ltd. (John Innes Centre, UK)
Description: Inhibition of the relaxation activity of E. coli topoisomerase IV was determined using enzyme, buffers and substrates received from John Innes Enterprises Ltd. (John Innes Centre, UK). The reactions were performed according to the manufacturer's directions, with the following modifications.
DNA relaxation reactions were carried out in a total reaction volume of 20 μL, containing 300 ng of supercoiled pBR322, 40 mM HEPES-KOH (pH 7.6), 100 mM potassium glutamate, 10 mM Mg(OAc)2, 10 mM DTT, 4 μg/mL tRNA, 2 mM ATP, and 50 μg/mL BSA. Compounds, diluted in 10% DMSO, were added to the reaction mixture to reach a final concentration of 0.5% DMSO. Enzyme was diluted to 0.45 unit/μL in a solution of 40 mM HEPES-KOH (pH 7.6), 150 mM potassium glutamate, 1 mM DTT, 1 mM EDTA, and 40% glycerol. Diluted enzyme (0.9 unit) was added to each reaction.
The reactions were incubated at 37° C. for 45 min. The reactions were then cooled to 0° C. followed by addition of 3 μL of 40% glycerol, 100 mM Tris-HCl (pH 7.5), 50 mM EDTA, 0.5% SDS and 0.1% bromophenol blue. Samples were separated on 1.0% agarose gels. Gels were stained with Ethidium bromide and photographed with a Stratagene Eagle Eye II.

CipR MRSA OC4222 = assay: Resistant strains assay (broth microdilution MIC); type: cell-based; conditions: Staphylococcus aureus; CipR MRSA OC4222; read-out: MIC, Column G
Description: (§2) Testing protocols followed NCCLS methodology for broth microdilution assays.

MRSA OC2878 = assay: Resistant strains assay (broth microdilution MIC); type: cell-based; conditions: Staphylococcus aureus; MRSA OC2878; read-out: MIC, Column D
Description: as §2

CipR MRSA OC5273 = assay: Resistant strains assay (broth microdilution MIC); type: cell-based; conditions: Staphylococcus aureus, read-out: MIC, Column H
Description: as §2

CipR MRSA OC4159 = assay: Resistant strains assay (broth microdilution MIC); type: cell-based; conditions: Staphylococcus aureus, read-out: MIC, Column F
Description: as §2

MRSA OC3726 (COL) = assay: Resistant strains assay (broth microdilution MIC); type: cell-based; conditions: Staphylococcus aureus; MRSA OC3726 (COL); read-out: MIC, Column C
Description: as §2

[1] = tested on: E. coli KL-16 (GSC strain 4245); assay: In vitro antibacterial activity (MIC assay), broth microdilution; type: cell-based; conditions: Escherichia coli
Method in brief: (§3)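 Broth microdilution per NCCLS M7-A5: 11-point 2-fold compound dilutions from DMSO stocks, inoculum about 5×10^5 CFU/mL, incubation 35° C for 16–24 h. MIC scored visually against no-compound growth controls, in μg/mL.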

S. aureus ATCC13709 = assay: as above; type: cell-based
Method in brief: as §3

S. pneumoniae ATCC49619 = assay: as above; type: cell-based; conditions: Streptococcus pneumoniae, ATCC49619; read-out: S. pneumoniae ATCC49619 MIC
Method in brief: as §3

E. coli DNA gyrase = target: T2, E. coli DNA gyrase (Escherichia coli, UniProt P0AES4+P0AES6); assay: DNA gyrase inhibition assay (supercoiling); type: biochemical; conditions: E. coli DNA gyrase supercoiling, visual inspection of gels; read-out: DNA Gyrase IC50 (converted)
T2 construct: purchased John Innes Enterprises Ltd. (John Innes Centre, UK)
Method in brief: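 Relaxed pBR322 (250 ng) was supercoiled by 0.2 unit gyrase in Tris-HCl pH 7.5, KCl, MgCl2, DTT, spermidine, 1 mM ATP, glycerol, albumin, 0.5% DMSO final, 30 min at 37° C. Products were resolved on 1.0% agarose gels with ethidium bromide staining.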

[2] = Staphylococcus aureus, ATCC13709; read-out: S. aureus ATCC13709 MIC

T1 sequence (P0AFI2 whole entry): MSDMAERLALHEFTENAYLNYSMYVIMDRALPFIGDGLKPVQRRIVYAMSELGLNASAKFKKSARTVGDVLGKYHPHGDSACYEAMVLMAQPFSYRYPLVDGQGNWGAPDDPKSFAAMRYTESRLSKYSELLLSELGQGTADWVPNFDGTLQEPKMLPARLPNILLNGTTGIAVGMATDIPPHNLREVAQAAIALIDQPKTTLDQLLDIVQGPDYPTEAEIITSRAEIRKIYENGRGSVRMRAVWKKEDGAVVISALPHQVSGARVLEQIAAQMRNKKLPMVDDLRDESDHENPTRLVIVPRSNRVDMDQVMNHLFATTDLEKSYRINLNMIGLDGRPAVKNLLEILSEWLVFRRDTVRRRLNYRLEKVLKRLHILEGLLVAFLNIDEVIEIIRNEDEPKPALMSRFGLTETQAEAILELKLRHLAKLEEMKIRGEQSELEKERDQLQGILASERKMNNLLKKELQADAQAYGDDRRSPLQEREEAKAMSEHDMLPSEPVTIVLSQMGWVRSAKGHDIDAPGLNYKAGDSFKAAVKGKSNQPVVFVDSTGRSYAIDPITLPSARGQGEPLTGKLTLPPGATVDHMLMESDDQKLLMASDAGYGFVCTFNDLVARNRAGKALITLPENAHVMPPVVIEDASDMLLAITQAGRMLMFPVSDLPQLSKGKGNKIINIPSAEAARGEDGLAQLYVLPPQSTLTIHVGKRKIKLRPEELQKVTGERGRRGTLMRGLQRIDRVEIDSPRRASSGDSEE
T1 sequence (P20083 whole entry): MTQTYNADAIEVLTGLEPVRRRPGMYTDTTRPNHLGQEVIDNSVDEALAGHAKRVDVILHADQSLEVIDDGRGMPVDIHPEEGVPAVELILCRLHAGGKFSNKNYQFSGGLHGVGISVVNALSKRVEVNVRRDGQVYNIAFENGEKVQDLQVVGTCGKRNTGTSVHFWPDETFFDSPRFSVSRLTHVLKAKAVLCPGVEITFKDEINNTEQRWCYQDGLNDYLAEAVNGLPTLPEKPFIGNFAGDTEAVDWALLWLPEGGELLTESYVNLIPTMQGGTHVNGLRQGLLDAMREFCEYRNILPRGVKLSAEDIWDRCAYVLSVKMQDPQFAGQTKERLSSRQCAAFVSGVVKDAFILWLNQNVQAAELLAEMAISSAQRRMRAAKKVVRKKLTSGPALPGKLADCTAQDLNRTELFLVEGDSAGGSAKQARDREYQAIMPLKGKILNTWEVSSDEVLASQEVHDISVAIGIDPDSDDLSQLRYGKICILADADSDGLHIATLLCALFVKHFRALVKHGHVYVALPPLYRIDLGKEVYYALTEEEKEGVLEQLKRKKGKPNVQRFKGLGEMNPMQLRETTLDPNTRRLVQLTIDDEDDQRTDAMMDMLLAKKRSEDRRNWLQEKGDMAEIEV
T2 sequence (P0AES4 whole entry, one chain of several): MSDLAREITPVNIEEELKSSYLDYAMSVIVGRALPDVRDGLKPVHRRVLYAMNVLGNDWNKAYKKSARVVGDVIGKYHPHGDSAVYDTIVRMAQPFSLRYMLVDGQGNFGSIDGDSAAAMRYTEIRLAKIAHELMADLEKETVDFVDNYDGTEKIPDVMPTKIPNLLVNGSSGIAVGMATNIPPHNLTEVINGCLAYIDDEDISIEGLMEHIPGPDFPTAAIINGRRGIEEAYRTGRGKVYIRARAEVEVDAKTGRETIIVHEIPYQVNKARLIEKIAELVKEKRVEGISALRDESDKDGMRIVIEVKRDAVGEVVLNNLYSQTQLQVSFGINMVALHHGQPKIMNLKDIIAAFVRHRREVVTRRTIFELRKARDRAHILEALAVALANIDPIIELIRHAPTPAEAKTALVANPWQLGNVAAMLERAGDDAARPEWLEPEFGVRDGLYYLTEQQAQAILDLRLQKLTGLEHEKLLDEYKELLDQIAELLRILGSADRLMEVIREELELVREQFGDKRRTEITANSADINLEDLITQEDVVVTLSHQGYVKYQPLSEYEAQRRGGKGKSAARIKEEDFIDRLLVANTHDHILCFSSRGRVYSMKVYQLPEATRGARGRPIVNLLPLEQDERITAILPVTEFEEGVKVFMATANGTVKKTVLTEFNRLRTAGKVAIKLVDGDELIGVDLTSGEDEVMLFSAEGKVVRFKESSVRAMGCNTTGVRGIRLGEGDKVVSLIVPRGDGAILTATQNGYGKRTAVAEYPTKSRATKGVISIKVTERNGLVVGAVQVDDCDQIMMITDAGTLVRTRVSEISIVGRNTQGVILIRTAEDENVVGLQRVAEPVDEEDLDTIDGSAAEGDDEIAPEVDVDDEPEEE

| SMILES | MIC (CipR MRSA OC3946) | MIC (MSSA ATCC13709 (Smith)) | MIC (MSSA ATCC 29213) | IC50 (E. coli topoisomerase IV) | MIC (CipR MRSA OC4222) | MIC (MRSA OC2878) | MIC (CipR MRSA OC5273) | MIC (CipR MRSA OC4159) | MIC (MRSA OC3726 (COL)) | MIC [1] | MIC (S. aureus ATCC13709; [2]) | MIC (S. pneumoniae ATCC49619) | IC50 (E. coli DNA gyrase) | MIC (S. aureus ATCC13709; Staphylococcus aureus, ATCC13709, read-out: S. aureus ATCC13709 MIC) |
| --- | --- | --- | --- | --- | --- | --- | --- | --- | --- | --- | --- | --- | --- | --- |
| COc1ccc2nccc(-n3cc4c(n3)CCC(NC(=O)c3cc5c(cc3F)SCC(=O)N5)C4)c2c1 (stereo not shown) [Example 18, 7-Fluoro-3-oxo-3,4-dihydro-2H-benzo[1,4]thiazine-6-carboxylic acid [2-(6-methoxy-quinolin-4-yl)-4,5,6,7-tetrahydro-2H-indazol-5-yl]-amide] | 0.015 mg/L (≈ 0.0298 µM) | 0.031 mg/L (≈ 0.0616 µM) | 0.25 mg/L (≈ 0.496 µM) | 0.496 µM | 0.031 mg/L (≈ 0.0616 µM) | 0.062 mg/L (≈ 0.123 µM) | 0.062 mg/L (≈ 0.123 µM) | 0.031 mg/L (≈ 0.0616 µM) | 0.062 mg/L (≈ 0.123 µM) | 4 mg/L (≈ 7.94 µM) | 0.03 mg/L (≈ 0.0596 µM) | 1 mg/L (≈ 1.99 µM) | – | – |
| COc1ccc2nccc(-n3cc4c(n3)CCC(NCc3ccc5c(n3)NC(=O)CO5)C4)c2c1 (stereo not shown) [Example 54, 6-{[2-(6-Methoxy-quinolin-4-yl)-4,5,6,7-tetrahydro-2H-indazol-5-ylamino]-methyl}-4H-pyrido[3,2-b][1,4]oxazin-3-one] | – | – | – | 0.035 µM | – | – | – | – | – | 2 mg/L (≈ 4.38 µM) | 1 mg/L (≈ 2.19 µM) | 2 mg/L (≈ 4.38 µM) | 0.131 µM | – |
| COc1ccc2nccc(-n3cc4c(n3)CCC(NC(=O)c3cc5c(cc3C(F)(F)F)SCC(=O)N5)C4)c2c1 (stereo not shown) [Example 115, 3-Oxo-7-trifluoromethyl-3,4-dihydro-2H-benzo[1,4]thiazine-6-carboxylic acid [2-(6-methoxy-quinolin-4-yl)-4,5,6,7-tetrahydro-2H-indazol-5-yl]-amide] | – | – | – | 0.452 µM | – | – | – | – | – | 8 mg/L (≈ 14.5 µM) | 0.125 mg/L (≈ 0.226 µM) | 8 mg/L (≈ 14.5 µM) | 1.81 µM | – |
| COc1ccc2nccc(-n3cc4c(n3)CCC(NCC(=O)Nc3cc(F)cc(F)c3)C4)c2n1 (stereo not shown) [Example 58, N-(3,5-Difluoro-phenyl)-2-[2-(6-methoxy-[1,5]naphthyridin-4-yl)-4,5,6,7-tetrahydro-2H-indazol-5-ylamino]-acetamide] | – | – | – | 0.0344 µM | – | – | – | – | – | 16 mg/L (≈ 34.4 µM) | 0.25 mg/L (≈ 0.538 µM) | 4 mg/L (≈ 8.61 µM) | 2.15 µM | – |
| COc1ccc2nccc(-n3cc4c(n3)CCC(NC(=O)c3ccc5c(c3)OCCO5)C4)c2n1 (stereo not shown) [Example 1, 2,3-Dihydro-benzo[1,4]dioxine-6-carboxylic acid [2-(6-methoxy-[1,5]naphthyridin-4-yl)-4,5,6,7-tetrahydro-2H-indazol-5-yl]-amide] | – | – | – | > 2.19 µM | – | – | – | – | – | > 128 mg/L | 0.5 mg/L (≈ 1.09 µM) | 8 mg/L (≈ 17.5 µM) | > 69.9 µM | – |
| COc1ccc2nccc(-n3cc4c(n3)CCC(NC(=O)c3cc5c(cc3C)SCC(=O)N5)C4)c2c1 (stereo not shown) [Example 131, 7-Methyl-3-oxo-3,4-dihydro-2H-benzo[1,4]thiazine-6-carboxylic acid [2-(6-methoxy-quinolin-4-yl)-4,5,6,7-tetrahydro-2H-indazol-5-yl]-amide] | – | – | – | – | 0.5 mg/L (≈ 1 µM) | – | – | – | – | 8 mg/L (≈ 16 µM) | 0.5 mg/L (≈ 1 µM) | 16 mg/L (≈ 32 µM) | – | – |
| COc1ccc2nccc(-n3cc4c(n3)CCC(NC(=O)c3cc5c(cc3Br)SCC(=O)N5)C4)c2c1 (stereo not shown) [Example 114, 7-Bromo-3-oxo-3,4-dihydro-2H-benzo[1,4]thiazine-6-carboxylic acid [2-(6-methoxy-quinolin-4-yl)-4,5,6,7-tetrahydro-2H-indazol-5-yl]-amide] | – | – | – | 0.221 µM | – | – | – | – | – | 2 mg/L (≈ 3.54 µM) | – | 2 mg/L (≈ 3.54 µM) | 0.886 µM | 0.125 mg/L (≈ 0.221 µM) |
| COc1ccc2nccc(-n3cc4c(n3)CCC(NCc3ccc5c(c3)OC(F)(F)O5)C4)c2n1 (stereo not shown) [Example 38, (2,2-Difluoro-benzo[1,3]dioxol-5-ylmethyl)-[2-(6-methoxy-[1,5]naphthyridin-4-yl)-4,5,6,7-tetrahydro-2H-indazol-5-yl]-amine] | – | – | – | 0.537 µM | – | – | – | – | – | > 128 mg/L | 0.25 mg/L (≈ 0.537 µM) | 4 mg/L (≈ 8.59 µM) | 4.3 µM | – |
